Assay results reported in the supplement of paper PMC13380429.

How the values were obtained:
Settings in all cases: 72 h
Vero E6 [1] = assay: cell viability relative to DMSO; higher = less toxic
Calu-3 [2] = assay: as above
U2OS [3] = assay: as above
Caco-2 [4] = assay: as above
HepG2 [5] = assay: as above
Vero E6 [6] = assay: relative viability EC50 (midpoint between 100% and the lowest measured viability); higher = less toxic
Calu-3 [7] = assay: as above
U2OS [8] = assay: as above
Caco-2 [9] = assay: as above
HepG2 [10] = assay: as above
Vero E6 [11] = assay: drug sensitivity score (DSS) for viability; higher = more toxic; extreme values may be limits of the assay
Calu-3 [12] = assay: as above
U2OS [13] = assay: as above
Caco-2 [14] = assay: as above
HepG2 [15] = assay: as above

Row | SMILES | cell viability (Vero E6 [1]; 1 nM) [%] | cell viability (Vero E6 [1]; 10 nM) [%] | cell viability (Vero E6 [1]; 100 nM) [%] | cell viability (Vero E6 [1]; 1000 nM) [%] | cell viability (Vero E6 [1]; 10000 nM) [%] | cell viability (Calu-3 [2]; 1 nM) [%] | cell viability (Calu-3 [2]; 10 nM) [%] | cell viability (Calu-3 [2]; 100 nM) [%] | cell viability (Calu-3 [2]; 1000 nM) [%] | cell viability (Calu-3 [2]; 10000 nM) [%] | cell viability (U2OS [3]; 1 nM) [%] | cell viability (U2OS [3]; 10 nM) [%] | cell viability (U2OS [3]; 100 nM) [%] | cell viability (U2OS [3]; 1000 nM) [%] | cell viability (U2OS [3]; 10000 nM) [%] | cell viability (Caco-2 [4]; 1 nM) [%] | cell viability (Caco-2 [4]; 10 nM) [%] | cell viability (Caco-2 [4]; 100 nM) [%] | cell viability (Caco-2 [4]; 1000 nM) [%] | cell viability (Caco-2 [4]; 10000 nM) [%] | cell viability (HepG2 [5]; 1 nM) [%] | cell viability (HepG2 [5]; 10 nM) [%] | cell viability (HepG2 [5]; 100 nM) [%] | cell viability (HepG2 [5]; 1000 nM) [%] | cell viability (HepG2 [5]; 10000 nM) [%] | relative viability EC50 (Vero E6 [6]) [µM] | relative viability EC50 (Calu-3 [7]) [µM] | relative viability EC50 (U2OS [8]) [µM] | relative viability EC50 (Caco-2 [9]) [µM] | relative viability EC50 (HepG2 [10]) [µM] | drug sensitivity score (Vero E6 [11]) | drug sensitivity score (Calu-3 [12]) | drug sensitivity score (U2OS [13]) | drug sensitivity score (Caco-2 [14]) | drug sensitivity score (HepG2 [15])
1 | CN1CCC(=C2c3ccccc3C=Cc3ccccc32)CC1 [cyproheptadine] | 98.8 | 99.5 | 97.3 | 86.1 | 79.3 | 101 | 97.2 | 91.3 | 106 | 101 | 97.6 | 97.4 | 92.1 | 100 | 96.9 | 106 | 96.4 | 99.7 | 90.3 | 90.3 | 88.7 | 90.1 | 116 | 103 | 86.6 | > 10 | > 10 | > 10 | > 10 | > 10 | 1.8 | 0 | 0 | 0 | 0
2 | Cc1cc(C)nc(NS(=O)(=O)c2ccc(NC(=S)NC(=O)COc3ccc(Br)cc3Cl)cc2)n1 [ZCL-278] | 93.4 | 97.5 | 101 | 103 | 95.9 | 98.4 | 94.8 | 103 | 104 | 107 | 95.6 | 100 | 93.5 | 97.9 | 93.8 | 97.7 | 102 | 104 | 92.2 | 98.7 | 108 | 98.1 | 100 | 96.4 | 98.4 | > 10 | > 10 | > 10 | > 10 | > 10 | 0 | 0 | 0 | 0 | 0
3 | N=C(Nc1ccccc1)c1cccs1 [LTA] | 99.7 | 101 | 93.5 | 99.1 | 103 | 97.6 | 104 | 97.4 | 104 | 91.6 | 99.9 | 104 | 95.9 | 104 | 95.7 | 89.4 | 88.4 | 98.1 | 93.7 | 82.8 | 105 | 105 | 96.8 | 99.1 | 110 | > 10 | > 10 | > 10 | > 10 | > 10 | 0 | 0 | 0 | 0 | 0
